System: U251 human glioma cells
Test: In vitro cytotoxicity assay, CPT-11 alone or with hCElm6 (CellTiter-Glo)
Assay type: cell-based
Details: irinotecan 0-100 μM for 4 hours, then 96 hours drug-free, conditioned medium from CE-expressing LM-NSC008 cells
Text: To explore the therapeutic potential of LM-NSC008 cells, we characterized their migration to tumor-conditioned media in vitro. […] We performed in vitro cytotoxicity assays using human U251 glioma cells and various concentrations of irinotecan alone or in combination with CE derived from LM-NSC008 cells adenovirally transduced to express hCElm6. We observed enhanced irinotecan toxicity (500-fold) in the presence of hCElm6 in the culture media, when compared with CPT-11 alone. CE (hCElm6) activity was measured at 995 nmol/min/ml in the conditioned media derived from LM-NSC008 cells prior to cytotoxicity experiment (FIG. 2D).
Human U251 glioma cell line was used in in vitro cytotoxicity assays as described previously (Metz et al., 2013). Briefly, cells were placed into 96-well plates (5,000 cells per well, in triplicate) in […] of culture media per well and cultured for 24 hours. Irinotecan (CPT-11), diluted in control culture medium or conditioned medium from CE-expressing LM-NSC008 cells, was then added to final concentrations of 0-100 μM. Cells were incubated with irinotecan for 4 hours, after which medium was aspirated and replaced with drug-free fresh medium, and cells were grown for an additional 96 hours. […]

## CCc1c2c(nc3ccc(OC(=O)N4CCC(N5CCCCC5)CC4)cc13)-c1cc3c(c(=O)n1C2)COC(=O)[C@]3(O)CC [irinotecan]
  enhanced irinotecan toxicity in the presence of hCElm6 compared with CPT-11 alone: 500 fold
